Measured values taken from ChEMBL document CHEMBL1201862, “PubChem BioAssay data set” (2004).
The source made the active and inactive calls.

Key:
cells = format: functional
[1] = reduction of Shn3 3'UTR-driven luciferase in osteoblasts – cell-based, Clone20 osteoblasts, firefly luciferase, cherry-picked, dose response (AID 624132); format: functional;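 also: firefly luciferase luminescence from reporter carrying the Shn3 3'UTR in osteoblasts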
[2] = non-specific 3'UTR reporter inhibition in Clone20-Shn3RL – cell-based, Renilla luciferase, cherry-picked, counter-screen for Shn3 inhibitor project, dose response (AID 624133); format: functional
[3] = molecular target: FAD-linked sulfhydryl oxidase ALR (Homo sapiens, UniProt P55789); assay: ALR-catalysed DTT oxidation blockers – biochemical, H2O2 detection, luminescence, cherry-pick, dose response (AID 493248)
[4] = molecular target: Luciferin 4-monooxygenase (Photinus pyralis, UniProt P08659); assay: inhibition of purified Photinus pyralis luciferase – biochemical, luminescence, dose response (AID 1891)
[5] = Luminescence Cell-Based Dose Confirmation HTS to Identify Inhibitors of Platelet Dense Granule Release. [Related pubchem assays: 1663 (Primary HTS), 1678 (Summary of Project)]; format: functional
[6] = molecular target: T1, Ubiquitin-conjugating enzyme E2 N (Homo sapiens, UniProt P61088); format: functional;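 also: Dose-response confirmation in a TR-FRET assay detecting UBC13-driven polyubiquitin chain formation, inhibition measured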
T1 sequence (P61088 whole entry): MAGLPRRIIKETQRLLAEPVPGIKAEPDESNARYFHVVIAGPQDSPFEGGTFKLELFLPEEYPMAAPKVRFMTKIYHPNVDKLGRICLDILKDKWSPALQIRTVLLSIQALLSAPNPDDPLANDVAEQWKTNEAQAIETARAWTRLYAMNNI

[7] = molecular target: T2, Replicative DNA helicase DnaB (Mycobacterium tuberculosis, UniProt P9WMR3); assay: DnaB intein splicing inhibitors, dose response, biochemical, cell-free fluorescence (AID 449749); format: functional
T2 sequence (P9WMR3 whole entry): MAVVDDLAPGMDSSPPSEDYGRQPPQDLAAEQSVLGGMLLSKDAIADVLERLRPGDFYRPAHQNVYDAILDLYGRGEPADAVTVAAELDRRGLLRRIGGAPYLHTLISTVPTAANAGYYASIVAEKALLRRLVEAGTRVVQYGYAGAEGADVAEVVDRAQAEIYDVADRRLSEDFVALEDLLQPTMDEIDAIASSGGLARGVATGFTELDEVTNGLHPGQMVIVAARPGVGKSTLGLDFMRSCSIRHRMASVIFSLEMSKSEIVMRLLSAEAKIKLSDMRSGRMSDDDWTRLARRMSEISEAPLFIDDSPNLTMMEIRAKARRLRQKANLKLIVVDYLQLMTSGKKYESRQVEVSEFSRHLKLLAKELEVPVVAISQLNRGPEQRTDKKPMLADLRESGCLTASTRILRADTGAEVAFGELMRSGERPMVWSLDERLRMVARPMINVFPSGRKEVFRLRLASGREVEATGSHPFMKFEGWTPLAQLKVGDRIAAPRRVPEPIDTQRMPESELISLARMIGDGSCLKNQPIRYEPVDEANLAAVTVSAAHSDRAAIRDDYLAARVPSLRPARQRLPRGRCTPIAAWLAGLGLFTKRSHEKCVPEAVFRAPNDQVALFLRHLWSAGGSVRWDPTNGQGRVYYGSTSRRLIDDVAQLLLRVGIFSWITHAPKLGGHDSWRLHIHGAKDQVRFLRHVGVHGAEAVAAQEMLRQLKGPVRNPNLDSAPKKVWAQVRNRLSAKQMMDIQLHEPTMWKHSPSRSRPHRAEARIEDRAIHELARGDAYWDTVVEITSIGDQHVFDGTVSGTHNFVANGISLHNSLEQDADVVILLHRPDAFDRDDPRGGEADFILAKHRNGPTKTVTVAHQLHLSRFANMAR

Protein RecA = molecular target: T3, Protein RecA (Mycobacterium tuberculosis, UniProt P9WHJ3); assay: Fluorescence Cell-Free Homogeneous Dose Retest to Identify Inhibitors of RecA-Intein Splicing Activity. [Related pubchem assays (depositor defined):AID2097, AID2223, AID489010, AID492950]; format: functional
T3 sequence (P9WHJ3 whole entry): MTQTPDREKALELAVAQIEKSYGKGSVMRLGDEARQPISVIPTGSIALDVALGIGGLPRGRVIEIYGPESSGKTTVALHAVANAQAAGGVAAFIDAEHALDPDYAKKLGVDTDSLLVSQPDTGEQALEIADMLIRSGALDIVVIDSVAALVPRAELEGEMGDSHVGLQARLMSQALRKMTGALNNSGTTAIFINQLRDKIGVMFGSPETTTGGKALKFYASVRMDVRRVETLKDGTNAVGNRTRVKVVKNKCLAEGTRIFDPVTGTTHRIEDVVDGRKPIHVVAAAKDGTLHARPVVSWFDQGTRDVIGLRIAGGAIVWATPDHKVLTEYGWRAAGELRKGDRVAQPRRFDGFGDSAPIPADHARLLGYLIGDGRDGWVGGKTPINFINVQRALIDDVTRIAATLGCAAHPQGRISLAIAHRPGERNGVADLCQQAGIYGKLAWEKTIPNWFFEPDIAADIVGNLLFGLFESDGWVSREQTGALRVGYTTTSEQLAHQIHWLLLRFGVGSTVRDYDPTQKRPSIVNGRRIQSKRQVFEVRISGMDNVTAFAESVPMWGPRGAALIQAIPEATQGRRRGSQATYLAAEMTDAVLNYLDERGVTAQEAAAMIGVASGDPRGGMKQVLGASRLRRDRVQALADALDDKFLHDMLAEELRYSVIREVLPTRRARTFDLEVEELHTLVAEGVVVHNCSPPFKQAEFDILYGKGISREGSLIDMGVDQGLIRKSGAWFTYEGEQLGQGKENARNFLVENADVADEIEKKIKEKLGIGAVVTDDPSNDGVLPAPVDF

[8] = luciferase reporter signal suppression in cells – H4 neuroglioma cells, luminescence, dose response (AID 1990); format: functional, cell-based
[9] = molecular target: T4, RNA-binding protein pos-1 (Caenorhabditis elegans, UniProt G5EF15); assay: disruptors of C. elegans POS-1 RNA interaction – biochemical, fluorescence polarization, dose response (AID 1964);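 also: purified POS-1 fused to maltose binding protein made in E. coli; potency of compounds blocking POS-1 binding to fluorescent RNA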
T4 sequence (G5EF15 whole entry): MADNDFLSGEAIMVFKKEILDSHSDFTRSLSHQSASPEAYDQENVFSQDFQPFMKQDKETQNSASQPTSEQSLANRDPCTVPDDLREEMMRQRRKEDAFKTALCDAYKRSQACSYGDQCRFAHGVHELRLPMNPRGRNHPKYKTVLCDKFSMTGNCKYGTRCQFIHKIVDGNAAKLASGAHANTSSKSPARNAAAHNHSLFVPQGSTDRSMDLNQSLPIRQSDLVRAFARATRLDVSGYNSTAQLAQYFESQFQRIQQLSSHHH

[10] = Luminescence Cell-Based Dose Response HTS to Identify Inhibitors of 5'UTR Stem-Loop Driven Prion Protein mRNA Translation in H4 Neuroglioblastoma Cells. [Related pubchem assays: 1827 (Project Summary), 1813 (Primary HTS)]; format: functional
[11] = molecular target: T5, Zinc finger protein mex-5 (Caenorhabditis elegans, UniProt Q9XUB2); assay: potency of MEX-5 RNA-binding blockers – biochemical, C. elegans, fluorescence polarization, dose response (AID 1960)
T5 sequence (Q9XUB2 whole entry): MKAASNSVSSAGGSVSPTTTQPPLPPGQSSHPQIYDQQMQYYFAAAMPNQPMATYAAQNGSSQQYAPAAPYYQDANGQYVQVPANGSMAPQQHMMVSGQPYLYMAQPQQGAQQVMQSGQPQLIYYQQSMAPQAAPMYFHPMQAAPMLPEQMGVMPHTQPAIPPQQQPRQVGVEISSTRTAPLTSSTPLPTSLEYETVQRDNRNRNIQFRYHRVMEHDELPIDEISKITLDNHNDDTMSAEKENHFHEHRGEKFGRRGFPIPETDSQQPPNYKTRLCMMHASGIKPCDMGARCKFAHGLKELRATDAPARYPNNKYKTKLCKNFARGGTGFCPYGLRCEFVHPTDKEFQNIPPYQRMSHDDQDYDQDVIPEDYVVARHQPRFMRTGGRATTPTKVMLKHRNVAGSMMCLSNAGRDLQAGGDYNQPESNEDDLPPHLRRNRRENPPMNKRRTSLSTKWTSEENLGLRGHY

[12] = alpha-synuclein stem-loop luciferase translation blockers – H4 neuroglioma cells, luminescence, confirmation (AID 1988); format: functional, cell-based

Sequence of FAD-linked sulfhydryl oxidase ALR (P55789 whole entry): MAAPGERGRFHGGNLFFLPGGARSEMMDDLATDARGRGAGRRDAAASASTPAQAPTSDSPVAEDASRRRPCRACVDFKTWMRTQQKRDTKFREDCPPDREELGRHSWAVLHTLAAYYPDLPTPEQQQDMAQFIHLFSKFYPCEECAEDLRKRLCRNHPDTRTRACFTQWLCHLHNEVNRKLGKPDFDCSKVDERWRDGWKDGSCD
Sequence of Luciferin 4-monooxygenase (P08659 whole entry): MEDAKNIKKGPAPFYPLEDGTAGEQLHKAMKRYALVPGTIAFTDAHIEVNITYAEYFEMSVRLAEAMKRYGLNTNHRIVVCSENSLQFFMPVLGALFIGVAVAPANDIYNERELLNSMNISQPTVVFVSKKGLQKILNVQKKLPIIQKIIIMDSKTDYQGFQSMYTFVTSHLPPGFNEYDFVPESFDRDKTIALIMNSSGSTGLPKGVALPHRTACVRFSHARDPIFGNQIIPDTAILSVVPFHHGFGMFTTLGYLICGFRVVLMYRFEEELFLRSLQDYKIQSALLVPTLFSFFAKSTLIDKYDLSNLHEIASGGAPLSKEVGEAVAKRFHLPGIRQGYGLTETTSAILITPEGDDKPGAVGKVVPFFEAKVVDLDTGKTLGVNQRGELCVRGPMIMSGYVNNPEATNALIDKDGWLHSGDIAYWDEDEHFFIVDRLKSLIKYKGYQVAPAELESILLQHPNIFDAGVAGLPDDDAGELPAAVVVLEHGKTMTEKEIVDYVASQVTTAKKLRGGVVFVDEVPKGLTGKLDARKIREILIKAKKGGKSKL

**Q.** For `O=C(c1ccccc1)C1CN(Cc2ccccc2)CCC1(O)c1ccccc1` (centres undefined), which IC50 (cells) is on record?
**A.** 18.7 µM (active)

**Q.** For `CCOC(=O)c1cccc(NC2c3ccccc3C(=O)N2Cc2ccco2)c1` (centres undefined), which AC50 [1] is on record?
**A.** 4.26 µM (active)

**Q.** And the AC50 [2]?
**A.** 1.94 µM (active)

**Q.** With `Cc1ccc(NC2CCCN(C(=O)CCCN3CCCCC3=O)C2)cc1C` (centres undefined) as the molecule, how does the AC50 [3] read?
**A.** 8.32 µM (active)

**Q.** Which AC50 [3] does the source give for `CC(=O)Nc1ccc(S(=O)(=O)N[C@@H](C)C(=O)N2CCN(c3ccccn3)CC2)cc1` here?
**A.** 1.37 µM (active)

**Q.** Which AC50 [3] does the source give for `O=C(O)c1[nH]c2ccccc2c1NS(=O)(=O)c1ccc(F)cc1` here?
**A.** 3.4 µM (active)

**Q.** Which EC50 [4] does the source give for `Nc1ccc(-c2nc3cc(N)ccc3o2)cc1` here?
**A.** > 112 µM (not active)

**Q.** What about the EC50 [5] of the same molecule?
**A.** 29.6 µM (active)

**Q.** What about the AC50 [3] of the same molecule?
**A.** 0.289 µM (active)

**Q.** For `O/N=C\c1ccc(-c2ccccc2)o1`, which AC50 [3] is on record?
**A.** 6.45 µM (active)

**Q.** Which IC50 (cells) does the source give for `CCc1nnc(NC(=O)c2cc3ccccc3oc2=O)s1` here?
**A.** 0.81 µM (active)

**Q.** With `COC(=O)[C@@]12CCCCN1[C@H](c1ccc(SC3CCCCC3)c(OC)c1)[C@@H]1C(=O)N(C)C(=O)[C@@H]12` as the molecule, how does the AC50 [1] read?
**A.** 21.4 µM (active)

**Q.** And the AC50 [2]?
**A.** 24.2 µM (active)

**Q.** With `COc1ccccc1NC(=O)COC(=O)c1cc(C)nc2ccccc12` as the molecule, how does the IC50 [6] read?
**A.** > 20 µM (inactive)

**Q.** For `CC(C)(C)OC(=O)N/N=C\c1ccc(OC(=O)c2ccco2)cc1`, which IC50 (cells) is on record?
**A.** 39.5 µM (active)

**Q.** And the AC50 [7]?
**A.** 34.5 µM (active)

**Q.** What about the EC50 (Protein RecA) of the same molecule?
**A.** 16.2 µM (active)

**Q.** With `Cc1oc2cc3oc(=O)c(CC(=O)N[C@@H](C)C(=O)NC(Cc4ccc(Cl)cc4)C(=O)O)c(C)c3cc2c1C` (some centres undefined) as the molecule, how does the AC50 [3] read?
**A.** 94.3 µM (active)

**Q.** With `Cc1cccc(C)c1NC(=O)COC(=O)CCc1c[nH]c2ccccc12` as the molecule, how does the IC50 (cells) read?
**A.** 9.65 µM (active)

**Q.** For `N=c1c(S(=O)(=O)c2ccc(Cl)cc2)cc2c(=O)n3ccccc3nc2n1C1CCCCC1`, which EC50 [8] is on record?
**A.** 83.2 µM (active)

**Q.** And the EC50 [9]?
**A.** 82.7 µM (inconclusive)

**Q.** What about the EC50 [10] of the same molecule?
**A.** 14.1 µM (active)

**Q.** What about the EC50 [11] of the same molecule?
**A.** 125 µM (active)

**Q.** And the EC50 [12]?
**A.** > 120 µM (not active)
